± gives the expanded uncertainty stated by the source.
Tests used:
[1] = xn = mol fraction of the nth substance listed; settings: 101 kPa, Liquid, x1 = 1; for viscosity: Capillary tube (Ostwald / Ubbelohde) method; for excess molar volume: Direct dilatometry; for speed of sound: Linear variable-path acoustic interferometer
[2] = Liquid; for viscosity / speed of sound: 101 kPa; for viscosity: Capillary tube (Ostwald / Ubbelohde) method; for speed of sound: Linear variable-path acoustic interferometer; for mass density: 101.33 kPa, Pycnometric method

Compound | viscosity ([1]; 303.15 K) [mPa·s] | excess molar volume ([1]; 303.15 K) [m3/mol] | speed of sound ([1]; 303.15 K) [m/s] | viscosity ([1]; 308.15 K) [mPa·s] | excess molar volume ([1]; 308.15 K) [m3/mol] | speed of sound ([1]; 308.15 K) [m/s] | viscosity ([1]; 313.15 K) [mPa·s] | excess molar volume ([1]; 313.15 K) [m3/mol] | speed of sound ([1]; 313.15 K) [m/s] | viscosity ([2]; 303.15 K) [mPa·s] | speed of sound ([2]; 303.15 K) [m/s] | mass density ([2]; 303.15 K) [kg/m3] | viscosity ([2]; 308.15 K) [mPa·s] | speed of sound ([2]; 308.15 K) [m/s] | mass density ([2]; 308.15 K) [kg/m3] | viscosity ([2]; 313.15 K) [mPa·s] | speed of sound ([2]; 313.15 K) [m/s] | mass density ([2]; 313.15 K) [kg/m3] | vapor or sublimation pressure ([2]; 410 K) [kPa] | vapor or sublimation pressure ([2]; 344.68 K) [kPa]
Cc1ccc(C)cc1 [1,4-dimethylbenzene] + C=COC(C)=O | 0.566 ± 0.016 | 0 ± 6e-09 | 1283.7 ± 5.2 | 0.537 ± 0.015 | 0 ± 6e-09 | 1271 ± 5.2 | 0.513 ± 0.015 | 0 ± 6e-09 | 1260 ± 5.2 |  |  |  |  |  |  |  |  |  |  | 
Cc1ccc(C)cc1 [1,4-dimethylbenzene] |  |  |  |  |  |  |  |  |  | 0.566 ± 0.016 | 1283.7 ± 5.2 | 852.3 ± 2.3 | 0.537 ± 0.015 | 1271 ± 5.2 | 847.9 ± 2.3 | 0.513 ± 0.015 | 1260 ± 5.2 | 843.6 ± 2.3 | 97.3 ± 3 | 
C=COC(C)=O [vinyl acetate] |  |  |  |  |  |  |  |  |  | 0.384 ± 0.012 | 1095.9 ± 5.2 | 918 ± 6.8 | 0.361 ± 0.011 | 1072.5 ± 5.1 | 904.2 ± 6.7 | 0.332 ± 0.011 | 1055.7 ± 5.1 | 891.8 ± 6.7 |  | 97.3 ± 3

From the NIST ThermoML archive (doi:10.1021/je050162g)
